According to patent publication US20260272879A1, “ANION-BINDING AROMATIC OLIGOAMIDE MACROCYCLES AND METHODS OF MAKING AND USING SAME” (The Research Foundation for The State University of New York, priority 2023, published 2026):

Experiments:
[1] = Isothermal titration calorimetry (ITC), Cl^−; type: binding; conditions: 25° C.
Description: (§1) Isothermal titration calorimetry (ITC) experiments were performed using a MicroCal VP-ITC. ITC experiments were conducted by adding ~1.5 mL of a solution containing c5a to the sample cell. Followed by titrating 10 μL aliquots of a solution containing the corresponding TBA·X salt (~10-14× concentration of c5a solution) from the syringe into the sample cell. Heats of dilution were obtained by titrating 10 μL aliquots of the TBA·X solution from the syringe into the sample cell in the absence of c5a. The heats of dilution were subtracted from the raw data. ITC data processing and curve fitting was done using the Origin program (MicroCal).
(§2) Two-step competition ITC experiments for determining the Ka of c5a and iodide. In CH3CN:CHCl3 (5:95, v/v), the binding affinity of c5a for I^− was too high to be determined with direct NMR or ITC titration. Instead, two-step competition ITC experiments with Cl^− as the competitor were performed.

[2] = Isothermal titration calorimetry (ITC), PF6^−; type: binding; conditions: 25° C.
Description: as §1, §2

[3] = 1H NMR titration, binding of ClO4^−; conditions: DMSO-d6:CDCl3 (15:85, v/v), 25° C.
Description: (§3) ^1H NMR titration methods. Titrations of c5a and c5b with anions as their tetra-n-butylammonium (TBA), tetra-ethylammonium (TEA) and tetra-methylammonium (TMA) salts were carried out by ^1H NMR (400 MHz) at 25° C. 0.4 mL of corresponding hosts solutions were prepared in the rubber-cap NMR tubes. Aliquots of concentrated guest solution containing hosts were added into the NMR tubes using 20 microliter pipette. An initial ^1H NMR spectrum was collected and additional spectra were obtained after each injection of guest solution. All titration ^1H NMR spectra were stacked together and the chemical shifts of the internal aromatic CH proton were then fitted to 1:1 binding model using BindFit v0.5 (http://app.supramolecular.org/bindfit/) to evaluate binding constants to anions.

[4] = 1H NMR titration, binding of IO4^−; conditions: DMSO-d6:CDCl3 (15:85, v/v), 25° C., NMR titration (protons a and b)
Description: as §3

[5] = 1H NMR titration, binding of iodide; conditions: DMSO-d6:CDCl3 (15:85, v/v), 25° C.
Description: ^1H NMR Titration methods. Titrations of 4c and 6c with anions as their tetra-n-butyl ammonium (TBA) salts were carried out by ^1H NMR (400 MHz on Bruker-400) at room temperature (298 K). 0.5 mL of receptor 4c (5.0 mM) or 6c (2.0 mM) were prepared in the rubber-cap NMR tubes. Aliquots of concentrated TBACl or TBAI solution (50 mM for the titration of 4c and 20 mM for the titration of 6c) containing the same amount of receptors were added into the receptor solution using 20 microliter pipette. An initial ^1H NMR spectrum was collected and additional spectra were obtained after each injection of TBACl or TBAI solution. All titration ^1H NMR spectra were stacked together and the chemical shifts of amide protons were then fitted to the proposed 1:1 binding model using BindFit v0.5 (http://app.supramolecular.org/bindfit/).
Anion binding with four amides, i.e., L1mer-L4mer, was studied in the mixed solvents of CD3CN/CDCl3 (1/9, v/v) by titrating an amide host with 0 to 5 equivalents of tetrabutylammonium (n-Bu4N^+) salt of the corresponding anion. The binding of chloride, bromide, iodide, and nitrate was examined with the four amides in CDCl3 containing 10% CD3CN. The titration data were collected by monitoring the changes in chemical shifts of the backbone amide protons and the inner aromatic protons with varying ratios of the anion guests. […]

[6] = Isothermal titration calorimetry (ITC), Br^−; type: binding; conditions: 25° C.
Description: as §1, §2

Solubility = type: physicochemical; conditions: CHCl3, CH2Cl2, DMF, and DMSO
[7] = 1H NMR titration, binding of PF6^−; conditions: DMSO-d6:CDCl3 (15:85, v/v), 25° C., NMR titration (protons a and b)
Description: as §3

[8] = Isothermal titration calorimetry (ITC), IO4^−; type: binding; conditions: 25° C.
Description: as §1, §2

[9] = 1H NMR titration, binding of bromide; conditions: DMSO-d6:CDCl3 (15:85, v/v), 25° C., NMR titration (protons a and b)
Description: […] […] The titration data were collected by monitoring the changes in chemical shifts of the backbone amide protons and the inner aromatic protons with varying ratios of the anion guests. Job plots indicate that these linear oligoamides and their anion guests bind in a 1:1 stoichiometry.
as §3

[10] = 1H NMR titration, binding of BF4^−; conditions: DMSO-d6:CDCl3 (15:85, v/v), 25° C., NMR titration (protons a and b)
Description: as §3

[11] = Isothermal titration calorimetry (ITC), I^−; type: binding; conditions: 25° C.
Description: as §1, §2

[12] = 1H NMR titration, binding of nitrate; conditions: 25° C.
Text: Anion binding with four amides, i.e., L1mer-L4mer, was studied in the mixed solvents of CD3CN/CDCl3 (1/9, v/v) by titrating an amide host with 0 to 5 equivalents of tetrabutylammonium (n-Bu4N^+) salt of the corresponding anion. The binding of chloride, bromide, iodide, and nitrate was examined with the four amides in CDCl3 containing 10% CD3CN. The titration data were collected by monitoring the changes in chemical shifts of the backbone amide protons and the inner aromatic protons with varying ratios of the anion guests. Job plots indicate that these linear oligoamides and their anion guests bind in a 1:1 stoichiometry.
The binding of anions by macrocycle 7c was examined in CH3CN/CHCl3 (6/4, v/v) and in DMSO by titrating with various equivalents of the salts of chloride, iodide. nitrate, and dihydrogen phosphate, with tetrabutylammonium (n-Bu4N^+) being the counterion ion. Following the changes in the chemical shifts of backbone amide protons and “inner” aromatic protons allowed the determination of binding constants.
as §3

[13] = Isothermal titration calorimetry (ITC), ClO4^−; type: binding; conditions: 25° C.
Description: as §1, §2

[14] = single NMR titration (protons a and b)
[15] = triplicate NMR titrations (footnote c)
[16] = DMSO-d6:CDCl3 (15:85, v/v) column, ITC measurements (footnote d)

CCCCCCCCOCC(C)(C)C(=O)Nc1ccc2cc1C(=O)Nc1ccc(NC(=O)C(C)(C)COCCCCCCCC)c(c1)C(=O)Nc1ccc(NC(=O)C(C)(C)COCCCCCCCC)c(c1)C(=O)Nc1ccc(NC(=O)C(C)(C)COCCCCCCCC)c(c1)C(=O)Nc1ccc(NC(=O)C(C)(C)COCCCCCCCC)c(c1)C(=O)N2 [c5a]
Association constant Ka, 1:1 complex with Cl^− ([1]; CH3CN:CHCl3 (5:95, v/v)): (2.34 ± 0.24) × 10^6 M^−1 | Association constant Ka, 1:1 complex with Cl^− ([1]; DMSO:CHCl3 (5:95, v/v)): (1.60 ± 0.10) × 10^4 M^−1 | Association constant Ka, 1:1 complex with PF6^− ([2]; CH3CN:CHCl3 (5:95, v/v)): (1.23 ± 0.17) × 10^7 M^−1 | Association constant Ka, 1:1 complex with PF6^− ([2]; DMSO:CHCl3 (5:95, v/v)): (2.80 ± 0.20) × 10^4 M^−1 | Association constant Ka, 1:1 complex with ClO4^− [3, 14]: (5.74 ± 0.51) × 10^4 M^−1 | Association constant Ka, 1:1 complex with ClO4^− [3, 15]: (9.60 ± 0.76) × 10^4 ^c M^−1 | Association constant Ka, 1:1 complex with IO4^− [4]: (1.18 ± 0.08) × 10^4 M^−1 | Association constant Ka, 1:1 complex with I^− [5, 14]: (2.73 ± 0.17) × 10^4 M^−1 | Association constant Ka, 1:1 complex with I^− [5, 15]: (3.77 ± 0.25) × 10^4 ^c M^−1 | Association constant Ka, 1:1 complex with Br^− ([6]; CH3CN:CHCl3 (5:95, v/v)): (1.79 ± 0.34) × 10^7 M^−1 | Association constant Ka, 1:1 complex with Br^− ([6]; DMSO:CHCl3 (5:95, v/v)): (1.37 ± 0.04) × 10^4 M^−1 | solubility in organic solvents (Solubility): soluble | Association constant Ka, 1:1 complex with PF6^− [7]: not detected | Association constant Ka, 1:1 complex with IO4^− ([8]; CH3CN:CHCl3 (5:95, v/v)): (2.54 ± 0.22) × 10^7 M^−1 | Association constant Ka, 1:1 complex with IO4^− ([8]; DMSO:CHCl3 (5:95, v/v)): (1.72 ± 0.05) × 10^5 M^−1 | Association constant Ka, 1:1 complex with Br^− [9]: (9.82 ± 1.08) × 10^3 M^−1 | Association constant Ka, 1:1 complex with BF4^− [10]: (4.73 ± 0.38) × 10^4 M^−1 | Association constant Ka, 1:1 complex with I^− ([11]; CH3CN:CHCl3 (5:95, v/v), two-step competition ITC with Cl^− as the competitor): (6.67 ± 0.81) × 10^7 ^f M^−1 | Association constant Ka, 1:1 complex with I^− ([11]; CH3CN:CHCl3 (5:95, v/v), ITC): (7.78 ± 4.26) × 10^7 M^−1 | Association constant Ka, 1:1 complex with I^− [11, 16]: (1.18 ± 0.03) × 10^4 ^d M^−1 | Association constant Ka, 1:1 complex with I^− ([11]; DMSO:CHCl3 (5:95, v/v), ITC): (1.83 ± 0.08) × 10^5 M^−1 | Association constant Ka, 1:1 complex with NO3^− ([12]; CD3CN:CDCl3 (80:20, v/v), NMR titration): >10^6 M^−1 | Association constant Ka, 1:1 complex with NO3^− ([12]; DMSO-d6:CDCl3 (15:85, v/v), NMR titration (protons a and b)): (1.57 ± 0.13) × 10^5 M^−1 | Association constant Ka, 1:1 complex with ClO4^− [13, 16]: (1.90 ± 0.02) × 10^4 ^d M^−1 | Association constant Ka, 1:1 complex with ClO4^− ([13]; DMSO:CHCl3 (5:95, v/v), ITC): (4.50 ± 0.50) × 10^5 M^−1
